Data published in patent US20160058881A1, “PRODRUGS WITH PROLONGED ACTION” (INDIANA UNIVERSITY RESEARCH AND TECHNOLOGY CORPORATION, priority 2013, published 2016).
Non-standard residues stand in square brackets, D forms with d. Groups on a side chain read outwards from the residue. No end group written: not given here. *: point of attachment. Docosanoyl = CCCCCCCCCCCCCCCCCCCCCC(=O)*; Phe(4-NH2) = Nc1ccc(C[C@H](N)C(=O)O)cc1; Aib = CC(C)(N)C(=O)O; Sar = CNCC(=O)O

Key:
[1] = test system: diet induced obesity (DIO) mice; experiment: In vivo effects of daily prodrug injection in DIO mice (Example 6); design: species or system mice (strain: C57B16); conditions: s.c. daily for 5 days, 10 nmol/kg
Description: C22 acylated versions of Peptide D were also tested for their in vivo effects in diet induced obesity (DIO) mice (strain: C57B16) following daily administrations. Nine groups of eight mice (with an initial average body weight of 65 g) were subcutaneously injected daily for 5 days with vehicle only or 3 nmol/kg or 10 nmol/kg of Peptide D (parent peptide), a Peptide D with C22 acylation via the prodrug dipeptide moiety and Peptide D with a C22 acyl group linked directly to the 4-amino phenylalanine at position 10. The mice were 11 months old and had been on a high fat diet for approximately 2 months. Body weight was monitored for a week following injection and was measured on Day 0, 1, 2, 3, 4 and 7, wherein Day 0 was the day of injection (FIG. 4A, 4B).

GLP-1 receptor [2] = biological target: T1, GLP-1 receptor (Homo sapiens, UniProt P43220); experiment: GLP-receptor luciferase bioassay of samples incubated in 20% human plasma (restored activity); assay type: cell-based; conditions: 37° C.; for Change of activity over the time points in plasma: 0 to 5 d
Description: To explore the possible formation of DKP and simultaneous regeneration of the parent drug, the above-mentioned peptides were incubated in 20% human plasma at 37° C. for approximately 5 days. Samples were collected at different time points (0, 1, 2, and 5 days).

[3] = test system: diet induced obese (DIO) mice; experiment: In vivo effects of alternate prodrug injection schemes in DIO mice (Example 7); design: species or system mice (strain: C57B16); conditions: s.c., 40 nmol/kg once, 20 nmol/kg twice, or 10 nmol/kg daily for four days
Description: C22 acylated versions of Peptide D were also tested for their in vivo effects in diet induced obese (DIO) mice (strain: C57B16) following alternative administration schedules. Two groups of eight mice (with an initial average body weight of 65 g) were subcutaneously injected once with 40 nmol/kg of Peptide D (parent peptide without acylation and without a dipeptide prodrug moiety), or 40 nmol/kg of a Peptide D with C22 acylation via the dipetide prodrug moiety. Three groups of eight mice were subcutaneously injected twice (1 day between injections, e.g., Monday-Wednesday) with vehicle only, 20 nmol/kg of Peptide D (parent peptide), or 20 nmol/kg of a Peptide D C22 acylated prodrug. Finally, three groups of eight mice were subcutaneously injected daily for four days with vehicle only, 10 nmol/kg of Peptide D (parent peptide), or 10 nmol/kg of a Peptide D C22 acylated prodrug.

[4] = test system: diet induced obesity (DIO) mice; experiment: In vivo effects of acyl chain length variants in DIO mice, single injection (Example 5); design: species or system mice (strain: C57B16); conditions: single s.c. injection, 10 nmol/kg, Day 0-7
Description: The Peptide D variants described above were also tested for their in vivo effects in diet induced obesity (DIO) mice (strain: C57B16). Nine groups of eight mice (with an initial average body weight of 50 g) were subcutaneously injected with vehicle only, or 10 nmol/kg of a Peptide D with C18 acylation via the dipeptide prodrug moiety (as described in Example 3), the parent peptide (i.e., Peptide D lacking acylation and lacking a dipeptide prodrug moiety), Peptide D with a C18 acyl group linked directly to the 4-amino phenylalanine at position 10, a Peptide D with C20 acylation via the dipeptide prodrug moiety, Peptide D with a C20 acyl group linked directly to the 4-amino phenylalanine at position 10, a Peptide D with C22 acylation via the dipeptide prodrug moiety, and Peptide D with a C22 acyl group linked directly to the 4-amino phenylalanine at position 10. The mice were 6 months old and had been on a high fat diet for approximately 2 months. Body weight was monitored for a week following injection and was measured on Day 0, 1, 2, 5, and 7 wherein Day 0 was the day of injection (FIG. 3A, 3B).

[5] = test system: diet induced obesity (DIO) mice; experiment: In vivo effects in DIO mice, single injection (Example 4); design: species or system mice (strain: C57B16); conditions: single s.c. injection, lower dose (10 nmol/kg), Day 0-5
Description: The Peptide D prodrug described in Example 3 was tested for its in vivo effects in diet induced obesity (DIO) mice (strain: C57B16). Nine groups of eight mice (with an initial average body weight of 50 g) were subcutaneously injected with vehicle only or 10 nmol/kg or 50 nmol/kg of a Peptide D acylated prodrug of Example 3, the parent peptide (i.e., Peptide D lacking an acylated dipeptide prodrug moiety), Peptide D with an acylated lysine residue linked directly the 4-amino phenylalanine at position 10, or the following peptide: YAib[…](γEγE-C16)[…]ib[…] (SEQ ID NO: 3082) (Peptide F). The mice were 6 months old and had been on a high fat diet for approximately 2 months. Body weight was monitored for a week following injection and was measured on Day 0, 1, 2, and 5, wherein Day 0 was the day of injection (FIG. 2).

GLP-1 receptor [6] = biological target: T1, GLP-1 receptor; experiment: GLP-1 agonist activity, cAMP production in an in vitro assay; assay type: cell-based; conditions: versus glucagon receptor
Description: Receptor activation can be measured by in vitro assays measuring cAMP induction in HEK293 cells over-expressing the receptor, e.g. assaying HEK293 cells co-transfected with DNA encoding the receptor and a luciferase gene linked to cAMP responsive element as described in the examples.

[7] = after last injection on day 4 to day 7

T1 sequence (P43220 24-463): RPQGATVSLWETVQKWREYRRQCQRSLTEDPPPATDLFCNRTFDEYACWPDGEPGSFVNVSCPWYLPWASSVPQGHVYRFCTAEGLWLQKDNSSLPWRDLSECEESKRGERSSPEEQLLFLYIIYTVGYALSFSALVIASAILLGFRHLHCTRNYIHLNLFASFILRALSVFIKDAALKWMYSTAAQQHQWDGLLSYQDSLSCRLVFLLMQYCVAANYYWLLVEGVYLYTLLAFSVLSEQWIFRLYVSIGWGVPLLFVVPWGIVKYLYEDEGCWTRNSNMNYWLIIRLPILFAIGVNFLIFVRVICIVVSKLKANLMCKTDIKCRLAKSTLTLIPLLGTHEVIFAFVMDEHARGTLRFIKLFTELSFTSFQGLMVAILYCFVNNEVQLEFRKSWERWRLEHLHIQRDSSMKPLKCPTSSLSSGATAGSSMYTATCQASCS

Substance | Body weight [1, 7] | Body weight ([1]; through day 4) | Restored (activity relative to parent peptide) (GLP-1 receptor [2]; 0 d) | Change of activity over the time points in plasma (GLP-1 receptor [2]) | Restored (activity relative to parent peptide) (GLP-1 receptor [2]; 1 d) | Restored (activity relative to parent peptide) (GLP-1 receptor [2]; 5 d) | Body weight (weight loss compared to the parent peptide) [3] | Body weight [4] | Body weight [5] | selectivity for the GLP-1 receptor (GLP-1 receptor [6])
C22 attached to position 10 (via A-B prodrug): Peptide D with (d)Lysine-sarcosine dipeptide on 4-amino group of phenylalanine at position 10, C22 acyl on epsilon amino of (d)Lysine (F[Aib]EGTFTSD[Phe(4-NH2)]([Sar-dK-Docosanoyl])SIYLDKQAA[Aib]EFVNWLLAGGPSSGAPPPS; not fully specified (C-terminus)) | continued to lose weight through day 7 | caused the most weight loss | Restored 36% | Activity Restored | Restored 57% | Restored 87% | more total and sustained weight loss |  |  | 
FAibEGTFTSDF(NH2)SIYLDKQAAAibEFVNWLLAGGPSSGAPPPS (F[Aib]EGTFTSD[Phe(4-NH2)]SIYLDKQAA[Aib]EFVNWLLAGGPSSGAPPPS-NH2; N-terminus assumed; SMILES CC[C@H](C)[C@H](NC(=O)[C@H](CO)NC(=O)[C@H](Cc1ccc(N)cc1)NC(=O)[C@H](CC(=O)O)NC(=O)[C@H](CO)NC(=O)[C@@H](NC(=O)[C@H](Cc1ccccc1)NC(=O)[C@@H](NC(=O)CNC(=O)[C@H](CCC(=O)O)NC(=O)C(C)(C)NC(=O)[C@@H](N)Cc1ccccc1)[C@@H](C)O)[C@@H](C)O)C(=O)N[C@@H](Cc1ccc(O)cc1)C(=O)N[C@@H](CC(C)C)C(=O)N[C@@H](CC(=O)O)C(=O)N[C@@H](CCCCN)C(=O)N[C@@H](CCC(N)=O)C(=O)N[C@@H](C)C(=O)N[C@@H](C)C(=O)NC(C)(C)C(=O)N[C@@H](CCC(=O)O)C(=O)N[C@@H](Cc1ccccc1)C(=O)N[C@H](C(=O)N[C@@H](CC(N)=O)C(=O)N[C@@H](Cc1c[nH]c2ccccc12)C(=O)N[C@@H](CC(C)C)C(=O)N[C@@H](CC(C)C)C(=O)N[C@@H](C)C(=O)NCC(=O)NCC(=O)N1CCC[C@H]1C(=O)N[C@@H](CO)C(=O)N[C@@H](CO)C(=O)NCC(=O)N[C@@H](C)C(=O)N1CCC[C@H]1C(=O)N1CCC[C@H]1C(=O)N1CCC[C@H]1C(=O)N[C@@H](CO)C(N)=O)C(C)C) [Parent peptide (Peptide D), Peptide D lacking acylation and lacking a dipeptide prodrug moiety] | began gaining weight |  |  | No change |  |  |  | declined through day 1, but returned toward the starting weight by day 7 | declined through day 1, but returned close to the starting weight by day 5 | 
SEQ ID NO: 22: glucagon analog substituting the native glutamine at position 3 with glutamic acid |  |  |  |  |  |  |  |  |  | approximately a tenfold selectivity for the GLP-1 receptor
